IC50 and GI50 data for 16 compounds are collected here from patent US8586591B2, “Aminopyrazine derivative and medicine” (Nippon Shinyaku Co., Ltd., priority 2009, dated 2013).

The structures appear in SMILES notation. pIC50: −log10 of the molar value. Structures can show the parent of a compound that is named as a salt.

In one test the target is T1, JAK3 tyrosine kinase (Homo sapiens, UniProt P52333).
T1 construct: purchased Carnabioscience Co
T1 sequence (P52333 1-1124): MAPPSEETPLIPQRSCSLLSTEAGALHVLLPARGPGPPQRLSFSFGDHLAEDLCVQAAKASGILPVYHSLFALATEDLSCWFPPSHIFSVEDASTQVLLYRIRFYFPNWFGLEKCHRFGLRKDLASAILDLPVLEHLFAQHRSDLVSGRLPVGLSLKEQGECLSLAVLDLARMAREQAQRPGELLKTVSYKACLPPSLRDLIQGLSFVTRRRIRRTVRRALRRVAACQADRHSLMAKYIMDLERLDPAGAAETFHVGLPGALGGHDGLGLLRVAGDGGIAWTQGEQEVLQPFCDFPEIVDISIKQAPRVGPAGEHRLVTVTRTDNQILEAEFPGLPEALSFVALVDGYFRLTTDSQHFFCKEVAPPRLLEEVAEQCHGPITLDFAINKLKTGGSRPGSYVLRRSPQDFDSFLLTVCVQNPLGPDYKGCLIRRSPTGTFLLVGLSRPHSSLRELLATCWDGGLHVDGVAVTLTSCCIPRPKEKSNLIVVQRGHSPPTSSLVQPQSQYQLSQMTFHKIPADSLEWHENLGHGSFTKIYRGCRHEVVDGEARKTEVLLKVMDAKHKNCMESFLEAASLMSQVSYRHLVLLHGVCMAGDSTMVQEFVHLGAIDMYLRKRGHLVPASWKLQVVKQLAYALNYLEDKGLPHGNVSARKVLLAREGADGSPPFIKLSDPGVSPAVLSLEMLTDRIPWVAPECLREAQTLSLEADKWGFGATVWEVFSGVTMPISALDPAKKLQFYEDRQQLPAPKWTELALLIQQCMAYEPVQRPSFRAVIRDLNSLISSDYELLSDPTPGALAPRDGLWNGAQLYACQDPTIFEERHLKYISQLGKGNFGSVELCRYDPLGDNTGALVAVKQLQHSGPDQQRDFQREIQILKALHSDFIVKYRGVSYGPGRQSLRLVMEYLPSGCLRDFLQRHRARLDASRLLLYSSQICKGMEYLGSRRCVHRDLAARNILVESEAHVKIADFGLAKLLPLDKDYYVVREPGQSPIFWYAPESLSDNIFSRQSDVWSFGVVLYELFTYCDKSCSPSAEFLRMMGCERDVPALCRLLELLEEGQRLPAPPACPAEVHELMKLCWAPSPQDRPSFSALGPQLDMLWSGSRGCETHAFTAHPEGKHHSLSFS
In words: Test 1: inhibitory activity to JAK3 tyrosine kinase (ELISA). The settings on record: 25 μM ATP in substrate solution, 30° C. for 1 hour, n=2. Format: biochemical. The essentials: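 ELISA of JAK3 kinase activity with absorbance read at 450 nm. Compounds were tested from DMSO dilution series at 100-fold the measurement concentrations (1000–0.01 μM), diluted up to 20 times in assay buffer, against a DMSO negative control. IC50 was estimated by non-linear regression of absorbance.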

The next test concerns the target T2, JAK2 tyrosine kinase (Homo sapiens, UniProt O60674).
T2 construct: purchased Carnabioscience Co
In words: Test 1: inhibitory activity to JAK2 tyrosine kinase (ELISA). Format: biochemical. The settings on record: 25 μM ATP in substrate solution, 30° C. for 1 hour, n=2. Put shortly:
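This is an ELISA read at A450 (HRP anti-phosphotyrosine antibody, TMB) of biotin-peptide phosphorylation captured on streptavidin. Enzyme solution was 0.75 nM JAK2, and the substrate solution was 625 nM peptide with 25 μM ATP in Tris pH 7.5 buffer. The reaction ran 1 h at 30 °C with compounds in duplicate, and IC50 was fitted non-linearly.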
For orientation: In an ELISA, binding on a coated surface is turned into a signal by an enzyme label.

In test [1] the target is BaF3 cells into which JAK2 V617F gene was introduced (Homo sapiens, UniProt O60674, V617F, cells depend on it). In words: Test 2: growth inhibitory action against variant JAK2 expressed cells (MTT method). The settings on record: incubation for 3 days, triplicate, read-out: concentration of the test material which inhibited 50% of the cell growth (IC50). The class given is cell-based. The procedure:
Test 2: Growth inhibitory action against variant JAK2 expressed cells
BaF3 cells into which JAK2 V617F gene was introduced ([…]) were inoculated on a 96-well plate in an amount of 1×10^3 cells/well and allowed to stand in a CO2 incubator. Next day, the test material was added to the cells. The test material was serially diluted with DMSO to give 10 mM, 6 mM, 3 mM, 1 mM, 600 μM, 300 μM, 100 μM, 60 μM, 30 μM, or 10 μM solution. This was diluted 100 times with distilled water to give 100 μM, 60 μM, 30 μM, 10 μM, 6 μM, 3 μM, 1 μM, 600 nM, 300 nM, or 100 nM solution. This solution of test material was added to the well in an amount of 10 μl/well. As a negative control, 1% DMSO solution was added to the well in an amount of 10 μl/well. In the above operation, the final concentration of the test material became 10 μM, 6 μM, 3 μM, 1 μM, 600 nM, 300 nM, 100 nM, 60 nM, 30 nM, 10 nM, or 0 nM (0.1% DMSO solution). The addition of the test material solution to each well was made in triplicate.
After continuous incubation for 3 days, the viable count was determined by an MTT method. The MTT method was carried out as follows. First, 10 μl each of solution containing 5 mg/ml of MTT (3-(4,5-dimethylthiazol-2-yl)-2,5-diphenyltetrazolium bromide) was added to each well. The plate was allowed to stand in a CO2 incubator for 4 hours, and then 100 μl of 0.04N HCl/2-propanol solution was added to each well to stop the reaction. The generated MTT-formazan was dissolved well with a multi-channel pipette, and the absorbance at 595 nm was measured with reference to that at 655 nm (Thermo Co.; Multiskan FC). Non-linear regression analysis was made by means of a SAS system (SAS Institute Inc.), and the concentration (IC50) of the test material which inhibited 50% of the cell growth was estimated.
Background: Tetrazolium dyes change colour on reduction, which living cells bring about.

T2 sequence (O60674 whole entry): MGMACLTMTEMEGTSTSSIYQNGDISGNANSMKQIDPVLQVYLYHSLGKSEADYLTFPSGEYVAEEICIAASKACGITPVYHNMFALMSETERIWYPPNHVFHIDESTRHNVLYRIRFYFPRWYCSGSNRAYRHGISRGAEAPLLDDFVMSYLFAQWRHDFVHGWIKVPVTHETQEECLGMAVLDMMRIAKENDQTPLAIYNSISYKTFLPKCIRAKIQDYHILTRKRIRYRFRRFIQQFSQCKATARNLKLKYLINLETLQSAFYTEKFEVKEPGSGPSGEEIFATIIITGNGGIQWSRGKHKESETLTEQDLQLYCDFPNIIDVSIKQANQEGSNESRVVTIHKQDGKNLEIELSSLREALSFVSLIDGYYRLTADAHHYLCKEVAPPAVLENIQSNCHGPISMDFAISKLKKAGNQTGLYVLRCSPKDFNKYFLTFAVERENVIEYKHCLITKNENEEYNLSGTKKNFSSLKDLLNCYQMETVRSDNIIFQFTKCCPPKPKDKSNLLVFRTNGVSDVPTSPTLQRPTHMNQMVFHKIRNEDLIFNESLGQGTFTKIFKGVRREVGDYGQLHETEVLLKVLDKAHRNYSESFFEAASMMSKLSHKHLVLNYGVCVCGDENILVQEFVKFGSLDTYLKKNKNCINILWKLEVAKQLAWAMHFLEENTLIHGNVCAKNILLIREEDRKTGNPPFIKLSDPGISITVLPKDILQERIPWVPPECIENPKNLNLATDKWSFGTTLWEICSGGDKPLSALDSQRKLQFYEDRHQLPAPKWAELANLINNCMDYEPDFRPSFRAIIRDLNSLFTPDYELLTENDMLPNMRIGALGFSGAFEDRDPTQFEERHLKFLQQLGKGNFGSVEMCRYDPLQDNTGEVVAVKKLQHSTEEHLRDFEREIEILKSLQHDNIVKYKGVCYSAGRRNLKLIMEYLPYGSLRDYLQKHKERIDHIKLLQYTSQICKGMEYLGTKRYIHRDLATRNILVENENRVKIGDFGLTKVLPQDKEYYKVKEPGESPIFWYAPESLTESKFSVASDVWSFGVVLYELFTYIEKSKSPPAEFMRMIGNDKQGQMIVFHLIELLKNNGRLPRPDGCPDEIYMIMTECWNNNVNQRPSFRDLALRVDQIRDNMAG
Chain of BaF3 cells into which JAK2 V617F gene was introduced (O60674 whole entry V617F): as the sequence (O60674 whole entry) above, with V617F counted along it

The term pIC50 denotes the negative decadic logarithm of the IC50, by convention in mol/L. For the compound `C[C@H](Nc1nc(Nc2cnccn2)cc(N2CCC(C(N)=O)CC2)n1)c1ccc(F)cc1` [Example 56, (S)-1-{2-[1-(4-Fluorophenyl)ethylamino]-6-(pyrazin-2-ylamino)pyrimidin-4-yl}piperidine-4-carboxamide hydrochloride], the pIC50 at JAK3 tyrosine kinase is 7.62; against JAK2 tyrosine kinase, 9.10. Also, the GI50 in test [1] was found to be 81 nM.

Take `C[C@H](Nc1nc(Nc2cnccn2)cc(N2CCC(NS(C)(=O)=O)C2)n1)c1ccc(F)cc1` (stereo partly drawn) [Example 60, N-(1-{2-[(S)-1-(4-Fluorophenyl)ethylamino]-6-(pyrazin-2-ylamino)pyrimidin-4-yl}pyrrolidin-3-yl)methanesulfonamide hydrochloride]: the pIC50 at JAK3 tyrosine kinase was 7.55; against JAK2 tyrosine kinase, 9.15. Further, the GI50 in test [1] worked out at 80 nM.

Take `C[C@H](Nc1nc(Nc2cnccn2)cc(N2CCN(S(C)(=O)=O)CC2)n1)c1ccc(F)cc1` [Example 65, (S)—N^2-[1-(4-Fluorophenyl)ethyl]-6-[4-(methylsulfonyl)piperazin-1-yl]-N^4-(pyrazin-2-yl)pyrimidine-2,4-diamine hydrochloride]: the results for the pIC50 on JAK3 tyrosine kinase and against JAK2 tyrosine kinase were 8.05 and 9.57, respectively. Also, the GI50 in test [1] amounted to 93 nM.

Consider `C[C@H](Nc1nc(Nc2cnccn2)cc(N2CCC(O)(CO)CC2)n1)c1ccc(F)cc1` [Example 105, (S)-1-{2-[1-(4-Fluorophenyl)ethylamino]-6-(pyrazin-2-ylamino)pyrimidin-4-yl}-4-(hydroxymethyl)piperidin-4-ol], for which the figures for the pIC50 on JAK3 tyrosine kinase and against JAK2 tyrosine kinase were 7.57 and 9.26, respectively. In addition, in test [1], the GI50 turned out to be 60 nM.

For `C[C@H](Nc1nc(Nc2cnccn2)cc(N2CCC3(CC2)COC(=O)O3)n1)c1ccc(F)cc1` [Example 112, (S)-8-{2-[1-(4-Fluorophenyl)ethylamino]-6-(pyrazin-2-ylamino)pyrimidin-4-yl}-1,3-dioxo-8-azaspiro[4.5]decan-2-one], the figures for the pIC50 against JAK3 tyrosine kinase and against JAK2 tyrosine kinase were 7.17 and 9.16, respectively. Further, the GI50 in test [1] came out at 64 nM.

In the case of `CCCNC(=O)c1cc(Nc2cnccn2)nc(N[C@@H](C)c2ccc(F)cc2)c1` [Example 166, (S)-2-[1-(4-Fluorophenyl)ethylamino]-N-propyl-6-(pyrazin-2-ylamino)isonicotinamide], the pIC50 against JAK3 tyrosine kinase was 6.42; at JAK2 tyrosine kinase, 8.66. In addition, in test [1], the GI50 worked out at 64 nM.

For the compound `C[C@H](Nc1cc(C(=O)NCC2CC2)cc(Nc2cnccn2)n1)c1ccc(F)cc1` [Example 167, (S)—N-Cyclopropylmethyl-2-[1-(4-fluorophenyl)ethylamino]-6-(pyrazin-2-ylamino) isonicotinamide], the pIC50 is 6.46 against JAK3 tyrosine kinase and 8.80 on JAK2 tyrosine kinase. Besides, the GI50 in test [1] is 63 nM.

Consider `CC(C)CNC(=O)c1cc(Nc2cnccn2)nc(N[C@@H](C)c2ccc(F)cc2)c1` [Example 170, (S)-2-[1-(4-Fluorophenyl)ethylamino]-N-isobutyl-6-(pyrazin-2-ylamino) isonicotinamide], for which the figures for the pIC50 against JAK3 tyrosine kinase and at JAK2 tyrosine kinase were 6.74 and 8.92, respectively. Further, the GI50 in test [1] was 77 nM.

`C[C@H](Nc1nc(Nc2cnccn2)cc(N2CC(O)(C3CC3)C2)n1)c1ccc(F)cc1` [Example 200, (S)-3-Cyclopropyl-1-{2-[1-(4-fluorophenyl)ethylamino]-6-(pyrazin-2-ylamino)pyrimidin-4-yl}azetidin-3-ol hydrochloride]: the pIC50 against JAK3 tyrosine kinase was 7.59; at JAK2 tyrosine kinase, 9.41. In test [1], the GI50 came out at 70 nM.

Take `C[C@H](Nc1nc(Nc2cnccn2)cc(N2CC(N(C)C)C2)n1)c1ccc(F)cc1` [Example 220, (S)-6-[3-(Dimethylamino)azetidin-1-yl]-N^2-[1-(4-fluorophenyl)ethyl]-N^4-(pyrazin-2-yl)pyrimidine-2,4-diamine]: the negative logarithm of the IC50 (pIC50) was 7.62 against JAK3 tyrosine kinase and 9.01 against JAK2 tyrosine kinase. For the same compound, in test [1], the GI50 worked out at 64 nM.

In the case of `C[C@H](Nc1nc(Nc2cnccn2)cc(N2CC(N3CCCC3)C2)n1)c1ccc(F)cc1` [Example 222, (S)—N^2-[1-(4-Fluorophenyl)ethyl]-N^4-(pyrazin-2-yl)-6-[3-(pyrrolidin-1-yl)azetidin-1-yl]pyrimidine-2,4-diamine], the pIC50 against JAK3 tyrosine kinase is 7.74; on JAK2 tyrosine kinase it was 9.12. Besides, in test [1], the GI50 came to 66 nM.

With `C[C@H](Nc1nc(Nc2cnccn2)cc(N2CC(N3CCOCC3)C2)n1)c1ccc(F)cc1` [Example 223, (S)—N^2-[1-(4-Fluorophenyl)ethyl]-6-(3-morpholinoazetidin-1-yl)-N^4-(pyrazin-2-yl)pyrimidine-2,4-diamine], the pIC50 is 7.96 against JAK3 tyrosine kinase and 9.19 at JAK2 tyrosine kinase. In addition, the GI50 in test [1] was 57 nM.

`C[C@H](Nc1nc(Nc2cnccn2)cc(N2CC(N3CCN(C)CC3)C2)n1)c1ccc(F)cc1` [Example 224, (S)—N^2-[1-(4-Fluorophenyl)ethyl]-6-[3-(4-methylpiperazin-1-yl)azetidin-1-yl]-N^4-(pyrazin-2-yl)pyrimidine-2,4-diamine]: the values for the pIC50 on JAK3 tyrosine kinase and at JAK2 tyrosine kinase were 7.80 and 8.96, respectively. Also, the GI50 in test [1] is 94 nM.

As to `C[C@H](Nc1nc(Nc2cnccn2)cc(N2CC(N3CCC(O)CC3)C2)n1)c1ccc(F)cc1` [Example 225], the pIC50 is 7.89 against JAK3 tyrosine kinase and 9.16 against JAK2 tyrosine kinase. For the same compound, in test [1], the GI50 amounted to 64 nM.

As for `C[C@H](Nc1nc(Nc2cnccn2)cc(N2CC(CO)C2)n1)c1ccc(F)cc1` [Example 228, (S)-(1-{2-[1-(4-Fluorophenyl)ethylamino]-6-(pyrazin-2-ylamino)pyrimidin-4-yl}azetidin-3-yl)methanol], the pIC50 at JAK3 tyrosine kinase is 7.72; against JAK2 tyrosine kinase, 8.96. Besides, the GI50 in test [1] was 89 nM.

Regarding `CCS(=O)(=O)NCC1CN(c2cc(Nc3cnccn3)nc(N[C@@H](C)c3ccc(F)cc3)n2)C1` [Example 231, (S)—N-[(1-{2-[1-(4-Fluorophenyl)ethylamino]-6-(pyrazin-2-ylamino)pyrimidin-4-yl}azetidin-3-yl)methyl]ethane sulfonamide], the pIC50 is 7.48 at JAK3 tyrosine kinase and 9.23 against JAK2 tyrosine kinase. The GI50 in test [1] was determined as 97 nM.
